# Source: publication PMC5500991, “Substituted arylsulphonamides as inhibitors of perforin-mediated lysis” (European Journal of Medicinal Chemistry, 2017)
# Counter-ions that a name gives are not always drawn.
row,SMILES,melting point [°C]
1,"CN1Cc2cc(-c3ccc(-c4cncc(NS(=O)(=O)c5ccc(Cl)c(Cl)c5)c4)s3)ccc2C1=O [Compound 30, 3,4-Dichloro-N-(5-(5-(2-methyl-1-oxoisoindolin-5-yl)thiophen-2-yl)pyridin-3-yl)benzenesulfonamide]",256 to 259
2,"COc1cccc(S(=O)(=O)Nc2cncc(-c3ccc(-c4ccc5c(c4)CN(C)C5=O)s3)c2)c1 [Compound 38, 3-Methoxy-N-(5-(5-(2-methyl-1-oxoisoindolin-5-yl)thiophen-2-yl)pyridin-3-yl)benzenesulfonamide]",278 to 280
3,"CN1Cc2cc(-c3ccc(-c4cncc(NS(=O)(=O)c5ccccc5Br)c4)s3)ccc2C1=O [Compound 32, 2-Bromo-N-(5-(5-(2-methyl-1-oxoisoindolin-5-yl)thiophen-2-yl)pyridin-3-yl)benzenesulfonamide]",289 to 293
4,"CN1Cc2cc(-c3ccc(-c4cccc(S(=O)(=O)Nc5ccccn5)c4)s3)ccc2C1=O (as salt: sodium) [Compound 14, sodium ((3-(5-(2-methyl-1-oxoisoindolin-5-yl)thiophen-2-yl)phenyl)sulfonyl)(pyridin-2-yl)amide]",302 to 306
5,"CN1Cc2cc(-c3ccc(-c4ccc(OC(F)(F)F)c(NS(=O)(=O)c5ccccn5)c4)s3)ccc2C1=O [Compound 18, N-(5-(5-(2-Methyl-1-oxoisoindolin-5-yl)thiophen-2-yl)-2-(trifluoromethoxy)phenyl)pyridine-2-sulfonamide]",200 to 201
6,"COc1ccccc1S(=O)(=O)Nc1cncc(-c2ccc(-c3ccc4c(c3)CN(C)C4=O)s2)c1 [Compound 37, 2-Methoxy-N-(5-(5-(2-methyl-1-oxoisoindolin-5-yl)thiophen-2-yl)pyridin-3-yl)benzenesulfonamide]",273 to 276
7,"CN1Cc2cc(-c3ccc(-c4cncc(NS(=O)(=O)c5cccc(OC(F)(F)F)c5)c4)s3)ccc2C1=O [Compound 42, N-(5-(5-(2-Methyl-1-oxoisoindolin-5-yl)thiophen-2-yl)pyridin-3-yl)-3-(trifluoromethoxy)benzenesulfonamide]",230 to 232
8,"CN1Cc2cc(-c3ccc(-c4cncc(NS(=O)(=O)c5ccccc5)c4)s3)ccc2C1=O [Compound 21, N-(5-(5-(2-Methyl-1-oxoisoindolin-5-yl)thiophen-2-yl)pyridin-3-yl)benzenesulphonamide]",300 to 303
9,"COc1ccc(S(=O)(=O)Nc2cncc(-c3ccc(-c4ccc5c(c4)CN(C)C5=O)s3)c2)cc1 [Compound 39, 4-Methoxy-N-(5-(5-(2-methyl-1-oxoisoindolin-5-yl)thiophen-2-yl)pyridin-3-yl)benzenesulfonamide]",254 to 258
10,"CN1Cc2cc(-c3ccc(-c4cncc(NS(=O)(=O)c5ccc(C(F)(F)F)cc5)c4)s3)ccc2C1=O [Compound 46, N-(5-(5-(2-Methyl-1-oxoisoindolin-5-yl)thiophen-2-yl)pyridin-3-yl)-4-(trifluoromethyl)benzenesulfonamide]",282 to 284
11,"CN1Cc2cc(-c3ccc(-c4cncc(NS(=O)(=O)c5ccc(Br)cc5)c4)s3)ccc2C1=O [Compound 34, 4-Bromo-N-(5-(5-(2-methyl-1-oxoisoindolin-5-yl)thiophen-2-yl)pyridin-3-yl)benzenesulfonamide]",276 to 279
12,"CN1Cc2cc(-c3ccc(-c4cncc(NS(=O)(=O)c5cccc(Cl)c5)c4)s3)ccc2C1=O [Compound 28, 3-Chloro-N-(5-(5-(2-methyl-1-oxoisoindolin-5-yl)thiophen-2-yl)pyridin-3-yl)benzenesulfonamide]",291 to 295
13,"CN1Cc2cc(-c3ccc(-c4cncc(NS(=O)(=O)c5ccc(F)c(F)c5)c4)s3)ccc2C1=O [Compound 25, 3,4-Difluoro-N-(5-(5-(2-methyl-1-oxoisoindolin-5-yl)thiophen-2-yl)pyridin-3-yl)benzenesulfonamide]",282 to 285
14,"CN1Cc2cc(-c3ccc(-c4cccc(NS(=O)(=O)c5ccc(F)cc5F)c4)s3)ccc2C1=O [Compound 9, 2,4-Difluoro-N-(3-(5-(2-methyl-1-oxoisoindolin-5-yl)thiophen-2-yl)phenyl)benzene sulphonamide]",260 to 262

# Other lines, results leading:
row,melting point [°C],SMILES
1,209 to 212,"COC(=O)c1ccccc1S(=O)(=O)Nc1cncc(-c2ccc(-c3ccc4c(c3)CN(C)C4=O)s2)c1 [Compound 51, Methyl 2-(N-(5-(5-(2-methyl-1-oxoisoindolin-5-yl)thiophen-2-yl)pyridin-3-yl)sulfamoyl)benzoate]"
2,272 to 275,"CCOC(=O)c1ccc(S(=O)(=O)Nc2cncc(-c3ccc(-c4ccc5c(c4)CN(C)C5=O)s3)c2)cc1 [Compound 54, Ethyl 4-(N-(5-(5-(2-methyl-1-oxoisoindolin-5-yl)thiophen-2-yl)pyridin-3-yl)sulfamoyl)benzoate]"
3,269 to 272,"CN1Cc2cc(-c3ccc(-c4cncc(NS(=O)(=O)c5cccc(Cl)c5F)c4)s3)ccc2C1=O [Compound 60, 3-Chloro-2-fluoro-N-(5-(5-(2-methyl-1-oxoisoindolin-5-yl)thiophen-2-yl)pyridin-3-yl)benzenesulfonamide]"
4,283 to 286,"CN1Cc2cc(-c3ccc(-c4cncc(NS(=O)(=O)c5cccnc5)c4)s3)ccc2C1=O [Compound 67, N-(5-(5-(2-Methyl-1-oxoisoindolin-5-yl)thiophen-2-yl)pyridin-3-yl)pyridine-3-sulfonamide]"
5,292 to 295,"CN1Cc2cc(-c3ccc(-c4cncc(NS(=O)(=O)c5ccc(C(F)(F)F)cc5Cl)c4)s3)ccc2C1=O [Compound 64, 2-Chloro-N-(5-(5-(2-methyl-1-oxoisoindolin-5-yl)thiophen-2-yl)pyridin-3-yl)-4-(trifluoromethyl)benzenesulfonamide]"
6,265 to 268,"Cc1cc(C)n(-c2ccc(S(=O)(=O)Nc3cncc(-c4ccc(-c5ccc6c(c5)CN(C)C6=O)s4)c3)cc2)n1 [Compound 72, 4-(3,5-Dimethyl-1H-pyrazol-1-yl)-N-(5-(5-(2-methyl-1-oxoisoindolin-5-yl)thiophen-2-yl)pyridin-3-yl)benzenesulfonamide]"
7,300 to 304,"CN1Cc2cc(-c3ccc(-c4cncc(NS(=O)(=O)c5cccs5)c4)s3)ccc2C1=O [Compound 68, N-(5-(5-(2-Methyl-1-oxoisoindolin-5-yl)thiophen-2-yl)pyridin-3-yl)thiophene-2-sulfonamide]"
8,277 to 280,"Cc1ncsc1S(=O)(=O)Nc1cncc(-c2ccc(-c3ccc4c(c3)CN(C)C4=O)s2)c1 [Compound 74, 4-Methyl-N-(5-(5-(2-methyl-1-oxoisoindolin-5-yl)thiophen-2-yl)pyridin-3-yl)thiazole-5-sulphonamide]"
9,> 300,"CN1Cc2cc(-c3ccc(-c4cncc(NS(=O)(=O)c5ccsc5)c4)s3)ccc2C1=O [Compound 69, N-(5-(5-(2-Methyl-1-oxoisoindolin-5-yl)thiophen-2-yl)pyridin-3-yl)thiophene-3-sulfonamide]"
10,277 to 279,"Cc1ccc(S(=O)(=O)Nc2cncc(-c3ccc(-c4ccc5c(c4)CN(C)C5=O)s3)c2)cc1Cl [Compound 63, 3-Chloro-4-methyl-N-(5-(5-(2-methyl-1-oxoisoindolin-5-yl)thiophen-2-yl)pyridin-3-yl)benzenesulfonamide]"
